Measurements published in US20220073470A1, “INHIBITORS OF CGAS ACTIVITY AS THERAPEUTIC AGENTS” (BELLBROOK LABS, LLC, priority 2019, published 2022).
In brackets after ≈: the same amount, converted by molar mass. Like-named read-outs stand apart in the source and are kept apart here. One block for each compound: values may come before it.

Assays:
[1] = target: T1, full-length human cGAS (Homo sapiens, UniProt Q8N884); test: cGAS enzymatic assay (FP readout), inhibition of cGAS; format: biochemical
T1 construct: The cGAS assay was used to screen 100,000 compounds with full-length human cGAS; 6xHis; made in house
T1 sequence (Q8N884 whole entry): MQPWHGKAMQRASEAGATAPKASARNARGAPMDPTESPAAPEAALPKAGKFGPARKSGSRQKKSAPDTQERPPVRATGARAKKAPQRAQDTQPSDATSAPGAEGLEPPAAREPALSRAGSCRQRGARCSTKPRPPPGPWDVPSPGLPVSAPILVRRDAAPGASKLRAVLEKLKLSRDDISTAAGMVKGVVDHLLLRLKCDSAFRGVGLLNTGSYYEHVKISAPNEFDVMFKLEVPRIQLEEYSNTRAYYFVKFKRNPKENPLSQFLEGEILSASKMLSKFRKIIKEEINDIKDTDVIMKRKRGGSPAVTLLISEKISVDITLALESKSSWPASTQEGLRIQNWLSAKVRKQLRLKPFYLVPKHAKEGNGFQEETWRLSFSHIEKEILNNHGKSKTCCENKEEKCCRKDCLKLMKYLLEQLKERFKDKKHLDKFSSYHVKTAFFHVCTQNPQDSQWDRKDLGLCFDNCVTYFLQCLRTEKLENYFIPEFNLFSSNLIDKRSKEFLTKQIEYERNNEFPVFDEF
Method: Some exemplary compounds of the disclosure were tested for inhibition of cGAS (30 nM). The results are provided in Table 1 where “A” indicates an IC50 of less than 100 nM, “B” indicates an IC50 of greater than 100 nM and less than 500 nM, “C” indicates an IC50 of greater than 500 nM and less than 1 μM, “D” indicates an IC50 of greater than 1 μM and less than 10 μM, and “E” indicates an IC50 of greater than 10 μM.
A homogenous cGAS enzymatic assay was developed with fluorescence polarization (FP) and time-resolved Forster resonance energy transfer (TR-FRET) readouts (FIG. 2A-D). The cGAS assay was used to screen 100,000 compounds with full-length human cGAS (FIG. 2E), resulting in the identification of novel chemotypes, two of which are further developed in a structure-driven hit-to-lead study (Table 3, below). The assay performance was robust, as indicated by respective Z and Z′ values of 0.59 and 0.63 in the screen; compounds with polarization values greater than three SDs from the mean were considered hits; a scatterplot from 10 plates (3,200 compounds) is shown in FIG. 2D.
(§1) Potency and MOA studies, including Mn^2+ sensitivity, are performed using the cGAS enzymatic assay. Dose response experiments are used to determine IC50 values under basal conditions (5 mM MgCl2, 100 μM ATP/GTP), and with the addition of physiological levels of Mn (0.2 mM) using human and mouse cGAS. Ligand optimization is driven by potency with the human enzyme; potency with mouse cGAS informs selection of an appropriate disease model for efficacy studies. Competition with ATP and GTP is assessed by comparing basal IC50 values to those in the presence of saturating ATP or GTP, and subsequently confirmed by measuring velocity vs. substrate at varying ATP or GTP levels. Inhibitor residence times (1/koff) are used as a key parameter for prioritizing compounds and driving SAR, because a longer residence time often results from an allosteric mechanism, and can also correlate with improved cellular activity. The cGAS enzymatic assay is used with the jump dilution method to measure residence times (inhibitor dissociation rates), as described for kinases using the very similar ADP assay. Biophysical methods, including SPR and TSAn, are used as orthologous methods for residence time measurements and kd estimates.

[2] = target: Mouse cGAS (Mus musculus, UniProt Q8C6L5); test: cGAS enzymatic assay with mouse cGAS; format: biochemical
Mouse cGAS, sequence (Q8C6L5 whole entry): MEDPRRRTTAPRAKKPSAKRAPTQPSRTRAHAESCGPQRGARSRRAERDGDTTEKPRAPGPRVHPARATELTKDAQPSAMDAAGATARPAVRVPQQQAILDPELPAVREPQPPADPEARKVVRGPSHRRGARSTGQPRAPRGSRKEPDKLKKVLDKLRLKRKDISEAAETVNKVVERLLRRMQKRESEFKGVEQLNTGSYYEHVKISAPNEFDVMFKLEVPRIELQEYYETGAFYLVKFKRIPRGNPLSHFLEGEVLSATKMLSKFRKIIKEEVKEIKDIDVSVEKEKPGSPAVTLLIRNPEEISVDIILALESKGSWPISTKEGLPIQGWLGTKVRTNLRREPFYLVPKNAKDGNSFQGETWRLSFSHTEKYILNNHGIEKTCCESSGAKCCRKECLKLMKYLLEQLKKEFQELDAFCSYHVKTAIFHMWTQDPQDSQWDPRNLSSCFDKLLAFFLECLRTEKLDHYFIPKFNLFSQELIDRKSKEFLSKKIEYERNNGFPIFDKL
Method: as §1

[3] = Solubility Ksol in PBS pH 7.4; format: physicochemical; conditions: pH 7.4, aqueous buffer, kinetic from dmso stock
[4] = Human microsomal stability (NADPH); format: in vitro ADME; conditions: liver microsomes, read-out: Human MS Stability (NADPH) t1/2
Method: (§2) Compounds are tested in Caco-2 and MDR1-MDCK permeability assays to provide a measure of intestinal absorption, blood-brain-permeability and efflux by P-glycoprotein (P-gp), a frequent obstacle to effective CNS delivery. CNS drugs are associated with high passive membrane permeability (Papp>1×10^−6 cm/sec) and have low efflux ratios (Papp(B−A)/Papp(A−B)<2.5). Metabolic stability is tested using mouse and human liver microsomes incubated with NADPH for CYP-dependent metabolism and with UDPGA for glucuronidation. Compounds are tested for pharmacokinetics and brain penetration in mice using oral, intravenous and intraperitoneal administration.

[5] = Mouse microsomal stability (NADPH); format: in vitro ADME; conditions: liver microsomes, read-out: Mouse MS Stability (NADPH) t1/2
Method: as §2

[6] = test system: Madin-Darby Canine Kidney cells-Multi Drug Resistance pump; test: MDCK-MDR permeability and efflux; format: in vitro ADME
Method: as §2

[7] = test system: P-glycoprotein (MDR1); test: MDCK-MDR permeability and efflux; format: in vitro ADME, Canine; conditions: dog, MDCK-MDR1
Method: as §2

[8] = test system: kinases (Abl1, PKA, TBK1), GTPase (Rac1), phosphodiesterase (PDE4A), ENPP1; test: Selectivity panel of nucleotide-utilizing enzymes; format: biochemical
Method: The compounds of formula (I) of the disclosure were tested for improved potency and other drug-like properties.
A panel of nucleotide-utilizing enzymes that included kinases (Abl1, PKA, TBK1—which transduces cGAS/STING signals, see FIG. 4) a GTPase (Rac1), a phosphodiesterase (PDE4A), and ENPP1, a nucleotidase that degrades cGAMP, was used preliminarily. cGAS assays were used to perform dose response measurements with cGAS inhibitors. In addition to these enzymes, inhibitors are tested with three other members of the oligoadenylate synthases (OAS), nucleic acid sensors that activate innate immunity via production of short, 2′-5′ oligoadenylate second messengers. Methods for expression and purification of the human and/or porcine enzymes in E. coli or baculovirus-infected insect cells have been developed as well as a simple, absorbance-based assay using commercially available pyrophosphate kit. In addition, an FP-based assay (competitive displacement of a fluor-cGAMP tracer) is developed to test compounds as ligands for STING.

[9] = test system: DNA-stimulated IFNβ expression; test: IFNβ ELISA, DNA-stimulated IFNβ expression; format: cell-based
Method: (§3) FIG. 5A illustrates activity of IFNβ expression of compound 14 in three different experiments. FIG. 5B illustrates the ISG mRNA expression of compound 14 in THP1-dual cells. Compound 14 in concentration of 200 μM was evaluated after 24 hours.
(§4) Cellular activity of several compounds of formula (I) was assessed in […]. For example, FIG. 5A illustrates activity of IFNβ expression, and FIG. 5B illustrates the ISG mRNA expression of compound 14 in THP1-dual cells.

[10] = test system: IRF3-driven transcription; test: IRF3-Luc reporter, THP1 dual-cell reporter system; format: cell-based; conditions: Homo sapiens, THP-1; read-out: Cellular IRF3-Luc
From the text: (§5) FIG. 4 includes a schematic showing the THP1 dual-cell reporter system: secreted luciferase reports on IRF3-driven transcription; secreted alkaline phosphatase reports on NFκB-driven transcription, both downstream of cGAS/STING.

[11] = test system: NFκB-driven transcription; test: NFκB-SEAP reporter, THP1 dual-cell reporter system; format: cell-based; conditions: Homo sapiens, THP-1; read-out: Cellular NFκB-SEAP
From the text: as §5

[12] = test system: ISG mRNA expression; test: ISG mRNA expression in THP1-dual cells; format: cell-based
Method: as §3, §4

[13] = target: cGAS (Homo sapiens, UniProt Q8N884); test: SPR binding to cGAS; conditions: enzymatic analysis and biophysical binding studies (SPR, TSA)
cGAS, sequence (Q8N884 whole entry): as the sequence (Q8N884 whole entry) above
From the text: Following confirmation of hits at three concentrations and removal of compounds with visually evident reactivity or metabolic liabilities, non-stoichiometric inhibitors, aggregators, DNA intercalators and redox-active compounds were triaged using established assays. Initial SAR based on more than 100 commercially available analogs provided additional confidence that the compounds of the disclosure were bonafide inhibitors, and informed potential scaffold hops and toleration for modifications. The compounds of formula (I) of the disclosure were selected for advancement into a hit-to-lead study. […] The compounds of formula (I) of the disclosure are competitive with GTP and its potency is enhanced in the presence of Mn^2+.
Potency and MOA studies, including Mn^2+ sensitivity, are performed using the cGAS enzymatic assay. Dose response experiments are used to determine IC50 values under basal conditions (5 mM MgCl2, 100 μM ATP/GTP), and with the addition of physiological levels of Mn (0.2 mM) using human and mouse cGAS. Ligand optimization is driven by potency with the human enzyme; potency with mouse cGAS informs selection of an appropriate disease model for efficacy studies. Competition with ATP and GTP is assessed by comparing basal IC50 values to those in the presence of saturating ATP or GTP, and subsequently confirmed by measuring velocity vs. substrate at varying ATP or GTP levels. […]

[14] = cGAS (30 nM), no Mn2+, read-out: Inhibition cGAS (IC50 class)
[15] = cGAS (30 nM), with Mn2+, read-out: Inhibition cGAS + Mn^2+ (IC50 class)

Structure (SMILES): COc1cc2c(-n3ccnc3)ccnc2cc1Cl [Compound 14, 7-chloro-4-(1H-imidazol-1-yl)-6-methoxyquinoline]
- IC50 ([1]; 100 μM ATP/GTP, read-out: Enzymatic FP Std (100 μM ATP/GTP)): 391 nM
- IC50 ([1]; 1 mM ATP/GTP, read-out: Enzymatic FP Physiological (1 mM ATP/GTP)): 1920 nM
- IC50 ([1]; 5 mM Mg2+, 0.2 mM Mn2+, read-out: IC50 (5 mM Mg^2+, 0.2 mM Mn^2+)): 48 ± 2 nM
- IC50 ([1]; 5 mM Mg2+, no Mn2+, read-out: IC50 (5 mM Mg^2+)): 550 ± 10 nM
- IC50 [1, 14]: 500 to 1000 nM
- IC50 [1, 15]: < 100 nM
- MOA ([1]; competition with substrates): GTP Competitive
- IC50 [2]: 93 nM
- solubility [3]: 224 µM (≈ 58.2 µg/mL)
- half-life [4]: 1.93 h
- half-life [5]: 0.355 h
- MDR-1-mediated export [6]: no indication of MDR-1-mediated export
- efflux ratio [7]: 0.5
- Papp A→B ([7]; A→B): 76.7 ×10⁻⁶ cm/s
- Off-Target Activity (Kinase, PDE, GTPase, ENPP1) [8]: None
- Inhibitory activity with panel of nucleotide-utilizing enzymes ([8]; at 200 μM, kinases, a GTPase, a phosphodiesterase, a nucleotidase): lack of inhibitory activity
- DNA-stimulated IFNβ expression as measured by ELISA [9]: specific inhibition
- IC50 ([9]; read-out: Cellular IFNβ ELISA): 68000 nM
- IC50 [10]: 75000 nM
- IC50 [11]: 59000 nM
- ISG expression [12]: inhibition
- ISG expression (fold decrease @ 200 μM) ([12]; 200 μM, THP1-dual cells, 24 hours): 2-10×
- Binding stoichiometry to cGAS [13]: Stoichiometric binding (1:1)

Structure (SMILES): CCOc1cc2c(-n3ccnc3)ccnc2cc1Cl [Compound 23, 7-chloro-6-ethoxy-4-(1H-imidazol-1-yl)quinolone]
- IC50 [1, 14]: 500 to 1000 nM
- IC50 [1, 15]: 100 to 500 nM

Structure (SMILES): Clc1ccc2c(-n3ccnc3)ncnc2c1 [Compound 5, 7-chloro-4-(1H-imidazol-1-yl)quinazoline]
- IC50 [1, 14]: > 10000 nM
- IC50 [1, 15]: > 10000 nM

Structure (SMILES): Nc1ccc2c(-n3ccnc3)ccnc2c1 [Compound 9, 4-(1H-imidazol-1-yl)quinolin-7-amine]
- IC50 [1, 15]: > 10000 nM

Now from value to compound:

- IC50 [1, 14]: > 10000 nM
- IC50 [1, 15]: > 10000 nM
Structure (SMILES): COc1ccc(CC(=O)Nc2cccc(C(=O)Nc3ccccc3C(=O)O)c2)cc1 [Compound 29, 2-(3-(2-(4-methoxyphenyl)acetamido)benzamido)benzoic acid]

- IC50 [1, 14]: > 10000 nM
- IC50 [1, 15]: 1000 to 10000 nM
Structure (SMILES): Nc1ccc2nccc(-n3ccnc3)c2c1 [Compound 11, 4-(1H-imidazol-1-yl)quinolin-6-amine]

- IC50 [1, 14]: 100 to 500 nM
- IC50 [1, 15]: < 100 nM
Structure (SMILES): COc1cc2c(-n3ccnc3)c(C(=O)O)cnc2cc1Cl [Compound 15, 7-chloro-4-(1H-imidazol-1-yl)-6-methoxyquinoline-3-carboxylic acid]

- IC50 [1, 14]: 1000 to 10000 nM
- IC50 [1, 15]: > 10000 nM
Structure (SMILES): COc1cc2c(N3CCC[C@H]3C(=O)O)nc(-c3ccccc3)nc2cc1Cl [Compound 17, (7-chloro-6-methoxy-2-phenylquinazolin-4-yl)-L-proline]

- IC50 [1, 14]: 500 to 1000 nM
- IC50 [1, 15]: 100 to 500 nM
Structure (SMILES): Cc1cc(-n2ccnc2)c2ccc(Cl)cc2n1 [Compound 18, 7-chloro-4-(1H-imidazol-1-yl)-2-methylquinoline]

- IC50 [1, 14]: > 10000 nM
Structure (SMILES): O=C(NCc1ccccc1)c1nc2[nH]c3c(c(=O)n2n1)CCC3 [Compound 31, N-benzyl-8-oxo-5,6,7,8-tetrahydro-4H-cyclopenta[d][1,2,4]triazolo[1,5-a]pyrimidine-2-carboxamide]
